The values that follow come from PubChem BioAssay (NCI).

Test systems include ACHN renal; COLO 205 colon; EKVX NSCLC; HOP-62 NSCLC; HT29 colon; IGROV1 ovarian; NCI-H460 lung; OVCAR-8 ovarian; SF-268 CNS; SF-295 CNS; SF-539 CNS; SK-MEL-28 melanoma; UACC-257 melanoma; M14 melanoma; UACC-62 melanoma; SR leukemia.
Holding throughout (test): NCI-60 cell line screen, 48 h

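Step 1: Grow cells in 96-well plates. Step 2: Expose to compound for 48 hours at 5 concentrations. Step 3: Interpolate endpoints linearly; if unreached, use highest concentration. At the TGI there is no net growth.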

In the case of `Cn1ccc(=NS(=O)(=O)c2ccccc2)cc1`, the TGI with ACHN renal, in the experiment on COLO 205 colon, with EKVX NSCLC, with HOP-62 NSCLC, in the experiment on HT29 colon and in the experiment on IGROV1 ovarian was above 100 µM in each case. Further, the TGI in the experiment on NCI-H460 lung, in the experiment on OVCAR-8 ovarian, with SF-268 CNS, in the experiment with SF-295 CNS, in the experiment on SF-539 CNS and in the experiment with SK-MEL-28 melanoma was above 100 µM each time. For the same compound, the TGI in the experiment on UACC-257 melanoma is above 100 µM.

Take `CO/N=C(/C(=O)Nc1c[n+](CC(=O)[O-])cs1)c1csc(N)n1`: the TGI in the experiment on ACHN renal, in the experiment on COLO 205 colon, in the experiment on EKVX NSCLC, in the experiment on HT29 colon, with IGROV1 ovarian and in the experiment with M14 melanoma was above 100 µM throughout. Further, the TGI in the experiment with NCI-H460 lung, in the experiment with OVCAR-8 ovarian, in the experiment with SF-268 CNS, in the experiment with SF-295 CNS, in the experiment on SF-539 CNS and in the experiment on UACC-257 melanoma was above 100 µM each time. Further, in the experiment with UACC-62 melanoma, the TGI is above 100 µM.

With `CSc1nc(NC2OCC(OC(C)=O)C(OC(C)=O)C2OC(C)=O)c2c(n1)OCC2=O` (stereo not given), the TGI in the experiment with ACHN renal, in the experiment on COLO 205 colon, in the experiment with EKVX NSCLC, in the experiment with HOP-62 NSCLC, in the experiment with HT29 colon and in the experiment with IGROV1 ovarian was above 100 µM throughout. In addition, the TGI in the experiment with M14 melanoma, with NCI-H460 lung, with OVCAR-8 ovarian, with SF-268 CNS, with SF-295 CNS and in the experiment with SF-539 CNS was above 100 µM throughout. For the same compound, the TGI in the experiment on SK-MEL-28 melanoma, in the experiment on UACC-257 melanoma and in the experiment on UACC-62 melanoma was above 100 µM in each case.

With `Cc1cc2c(=O)c(C)n[nH]c2c(C#N)c1C`, the TGI in the experiment on ACHN renal, in the experiment with COLO 205 colon, in the experiment on EKVX NSCLC, in the experiment with HOP-62 NSCLC, in the experiment on HT29 colon and in the experiment on IGROV1 ovarian was above 100 µM each time. Further, the TGI in the experiment with NCI-H460 lung, in the experiment on OVCAR-8 ovarian, in the experiment on SF-268 CNS, in the experiment with SF-295 CNS, with SF-539 CNS and in the experiment on SK-MEL-28 melanoma was above 100 µM in each case. The TGI in the experiment with SR leukemia, in the experiment on UACC-257 melanoma and with UACC-62 melanoma was above 100 µM throughout.

On to `O=c1[nH]nc(CNc2ccc(Cl)cc2Cl)c2ccccc12`, for which the TGI in the experiment on ACHN renal is 46.2 µM; in the experiment on COLO 205 colon it was above 100 µM; in the experiment on EKVX NSCLC, 85.7 µM; with HOP-62 NSCLC, 43 µM; with HT29 colon it was above 100 µM; in the experiment with IGROV1 ovarian it was 58.7 µM. The TGI is above 100 µM in the experiment on M14 melanoma; 84.5 µM in the experiment with NCI-H460 lung; 44.7 µM with SF-268 CNS; 44.7 µM in the experiment with SF-295 CNS; 41 µM in the experiment with SF-539 CNS; 52.4 µM in the experiment with SK-MEL-28 melanoma. Besides, the TGI was above 100 µM in the experiment with SR leukemia, 92.7 µM with UACC-257 melanoma and above 100 µM with UACC-62 melanoma.

Turning to `Nc1ccn(CCOC(c2ccccc2)P(=O)(O)O)c(=O)n1` (stereo not given), the TGI in the experiment with ACHN renal, in the experiment with COLO 205 colon, in the experiment on EKVX NSCLC, with HT29 colon, in the experiment with IGROV1 ovarian and with NCI-H460 lung was above 100 µM each time. Further, the TGI in the experiment with OVCAR-8 ovarian, with SF-268 CNS, in the experiment on SF-295 CNS, with SF-539 CNS, with SK-MEL-28 melanoma and in the experiment with SR leukemia was above 100 µM in each case. The TGI with UACC-257 melanoma and in the experiment with UACC-62 melanoma was above 100 µM each time.

Take `CCCCCCCC(=O)OC[C@H](C[As](=O)(O)O)OC(=O)CCCCCCC`: the TGI is 23.1 µM in the experiment on ACHN renal; 30 µM in the experiment with COLO 205 colon; 80.7 µM in the experiment with EKVX NSCLC; 33.1 µM with HOP-62 NSCLC; 25.2 µM with HT29 colon; 14.4 µM in the experiment on IGROV1 ovarian. The TGI in the experiment with M14 melanoma was 25.6 µM; with OVCAR-8 ovarian, 32 µM; with SF-268 CNS it was 15.6 µM; with SF-295 CNS, 27.5 µM; with SF-539 CNS, 18.2 µM; with SK-MEL-28 melanoma it was 26.5 µM. Moreover, the TGI in the experiment with SR leukemia turned out to be 22.8 µM; in the experiment with UACC-257 melanoma, 27.2 µM; in the experiment with UACC-62 melanoma, 21.3 µM.

Turning to `CS(=O)(=O)NNS(=O)(=O)c1ccc(F)cc1`, the TGI in the experiment on ACHN renal, in the experiment with COLO 205 colon, with EKVX NSCLC, in the experiment with HOP-62 NSCLC, in the experiment with HT29 colon and with IGROV1 ovarian was above 100 µM each time. In addition, the TGI with M14 melanoma, in the experiment on NCI-H460 lung, in the experiment with OVCAR-8 ovarian, with SF-268 CNS, in the experiment with SF-295 CNS and with SF-539 CNS was above 100 µM throughout. Besides, the TGI with SR leukemia, in the experiment with UACC-257 melanoma and in the experiment on UACC-62 melanoma was above 100 µM in each case.

Take `CC(C)(C)OC(=O)N1CC(C)(C)N2C(=O)C3(CCCO3)C12` (stereo not given): the TGI in the experiment with ACHN renal, with COLO 205 colon, in the experiment with EKVX NSCLC, in the experiment on HOP-62 NSCLC, in the experiment with HT29 colon and in the experiment with IGROV1 ovarian was above 100 µM throughout. Moreover, the TGI in the experiment on M14 melanoma, in the experiment with NCI-H460 lung, with OVCAR-8 ovarian, in the experiment with SF-268 CNS, with SF-295 CNS and with SF-539 CNS was above 100 µM throughout. The TGI in the experiment on SK-MEL-28 melanoma, with UACC-257 melanoma and in the experiment on UACC-62 melanoma was above 100 µM in each case.

Take `CCc1cccc(C(C)CC)c1NC(=O)C(=O)Cc1nc2ccccc2o1` (stereo not given): the TGI in the experiment on ACHN renal, in the experiment with COLO 205 colon, in the experiment on EKVX NSCLC, in the experiment on HOP-62 NSCLC, in the experiment on HT29 colon and with IGROV1 ovarian was above 50 µM in each case. The TGI in the experiment with M14 melanoma, in the experiment with NCI-H460 lung, in the experiment with OVCAR-8 ovarian, in the experiment on SF-268 CNS, in the experiment on SF-295 CNS and in the experiment on SF-539 CNS was above 50 µM in each case. Further, the TGI in the experiment on SK-MEL-28 melanoma, in the experiment with UACC-257 melanoma and with UACC-62 melanoma was above 50 µM throughout.
